# Activity calls are given as the source filed them. The calls are words filed in the database; no cut-off is given here.
# Tested on: Listeria monocytogenes
# Test: Effect on PrfA expression in Listeria monocytogenes EGD-e at 1 uM by Western blot method
# Assay type: functional
# Details: not given
row,SMILES,Activity
1,Cc1ccc(Cc2cc(=O)n3c(c2N(C)C)SCC3C(=O)O)c2ccccc12 (racemic; form 1) [listing 1 of 2 here],inactive

# Target: T1, Listeriolysin regulatory protein (Listeria monocytogenes serovar 1/2a (strain ATCC BAA-679 / EGD-e)) (UniProt P22262)
# T1 sequence (whole entry): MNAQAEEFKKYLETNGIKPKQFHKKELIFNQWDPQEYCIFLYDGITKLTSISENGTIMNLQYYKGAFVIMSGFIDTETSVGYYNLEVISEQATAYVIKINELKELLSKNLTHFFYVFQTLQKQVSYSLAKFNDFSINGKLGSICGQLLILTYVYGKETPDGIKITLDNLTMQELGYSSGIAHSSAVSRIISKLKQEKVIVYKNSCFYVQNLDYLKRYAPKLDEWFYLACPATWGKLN
# Test: Inhibition of PrfA in Listeria monocytogenes EGD-e assessed as downregulation of ActA expression at 10 uM by Western blot method
# Details: not given
row,SMILES,inhibition
1,O=C(O)[C@@H]1CSc2c(C3CC3)c(Cc3cccc4ccccc34)cc(=O)n21,Active
2,CN(C)c1c(Cc2cccc3ccccc23)cc(=O)n2c1SCC2C(=O)O.Cl (racemic),Active
3,COc1c(Cc2cccc3ccccc23)cc(=O)n2c1SCC2C(=O)O (racemic),inactive
4,Cc1cccc(Cc2cc(=O)n3c(c2N(C)C)SCC3C(=O)O)c1C (racemic),Active

# Target: T1, Listeriolysin regulatory protein (Listeria monocytogenes serovar 1/2a (strain ATCC BAA-679 / EGD-e))
# Test: Inhibition of PrfA in Listeria monocytogenes EGD-e assessed as downregulation of LLO expression at 1 uM by Western blot method
# Details: not given
row,SMILES,inhibition
1,O=C(O)[C@@H]1CSc2c(C3CC3)c(Cc3cccc4ccccc34)cc(=O)n21,Active
2,CN(C)c1c(Cc2cccc3ccccc23)cc(=O)n2c1SCC2C(=O)O.Cl (racemic),Active
3,COc1c(Cc2cccc3ccccc23)cc(=O)n2c1SCC2C(=O)O (racemic),inactive
4,Cc1cccc(Cc2cc(=O)n3c(c2N(C)C)SCC3C(=O)O)c1C (racemic),Active
5,Cc1ccc(Cc2cc(=O)n3c(c2N(C)C)SCC3C(=O)O)c2ccccc12 (racemic; form 1) [listing 1 of 2 here],Active

# Organism: Gallus gallus
# Test: Toxicity in chicken embryo at 4 to 8 uM measured over 72 hrs
# Assay type: organism-based
# Details: in vivo
row,SMILES,Activity
1,Cc1ccc(Cc2cc(=O)n3c(c2N(C)C)SCC3C(=O)O)c2ccccc12 (racemic; form 1) [listing 2 of 2 here],Non-Toxic

# Target: T1, Listeriolysin regulatory protein (Listeria monocytogenes serovar 1/2a (strain ATCC BAA-679 / EGD-e))
# Test: Inhibition of PrfA in Listeria monocytogenes EGD-e assessed as downregulation of LLO expression at 10 uM by Western blot method
# Details: not given
row,SMILES,inhibition
1,O=C(O)[C@@H]1CSc2c(C3CC3)c(Cc3cccc4ccccc34)cc(=O)n21,Active
2,CN(C)c1c(Cc2cccc3ccccc23)cc(=O)n2c1SCC2C(=O)O.Cl (racemic),Active
3,COc1c(Cc2cccc3ccccc23)cc(=O)n2c1SCC2C(=O)O (racemic),inactive
4,Cc1cccc(Cc2cc(=O)n3c(c2N(C)C)SCC3C(=O)O)c1C (racemic),Active

# Target: T1, Listeriolysin regulatory protein (Listeria monocytogenes serovar 1/2a (strain ATCC BAA-679 / EGD-e))
# Test: Binding affinity to Listeria monocytogenes 6-His-tagged PrfA expressed in Escherichia coli BL21 (DE3) pLysS by ITC method
# Details: not given
row,SMILES,Activity
1,CN(C)c1c(Cc2cccc3ccccc23)cc(=O)n2c1SCC2C(=O)O.Cl (racemic),Active
2,COc1c(Cc2cccc3ccccc23)cc(=O)n2c1SCC2C(=O)O (racemic),Active
3,Cc1cccc(Cc2cc(=O)n3c(c2N(C)C)SCC3C(=O)O)c1C (racemic),Active
4,Cc1ccc(Cc2cc(=O)n3c(c2N(C)C)SCC3C(=O)O)c2ccccc12 (racemic; form 1) [listing 1 of 2 here],Active

# Target: T1, Listeriolysin regulatory protein (Listeria monocytogenes serovar 1/2a (strain ATCC BAA-679 / EGD-e))
# Test: Inhibition of PrfA in Listeria monocytogenes EGD-e assessed as downregulation of ActA expression at 1 uM by Western blot method
# Details: not given
row,SMILES,inhibition
1,O=C(O)[C@@H]1CSc2c(C3CC3)c(Cc3cccc4ccccc34)cc(=O)n21,Active
2,CN(C)c1c(Cc2cccc3ccccc23)cc(=O)n2c1SCC2C(=O)O.Cl (racemic),Active
3,COc1c(Cc2cccc3ccccc23)cc(=O)n2c1SCC2C(=O)O (racemic),inactive
4,Cc1cccc(Cc2cc(=O)n3c(c2N(C)C)SCC3C(=O)O)c1C (racemic),Active
5,Cc1ccc(Cc2cc(=O)n3c(c2N(C)C)SCC3C(=O)O)c2ccccc12 (racemic; form 1) [listing 1 of 2 here],Active

# Target: T2, Listeriolysin regulatory protein (Listeria monocytogenes serovar 1/2a (strain ATCC BAA-679 / EGD-e), UniProt P22262)
# T2 sequence (P22262 whole entry): T1 sequence (whole entry)
# Test: Binding affinity to Listeria monocytogenes 6-His-tagged PrfA expressed in Escherichia coli BL21 (DE3) pLysS assessed as inhibition of protein binding with biotinylated hpt-DNA by SPR method
# Details: not given
row,SMILES,IC50
1,O=C(O)[C@@H]1CSc2c(C3CC3)c(Cc3cccc4ccccc34)cc(=O)n21,4.5 µM
2,CN(C)c1c(Cc2cccc3ccccc23)cc(=O)n2c1SCC2C(=O)O.Cl (racemic),1.8 µM
3,COc1c(Cc2cccc3ccccc23)cc(=O)n2c1SCC2C(=O)O (racemic),65.6 µM
4,Cc1cccc(Cc2cc(=O)n3c(c2N(C)C)SCC3C(=O)O)c1C (racemic),3 µM
5,Cc1ccc(Cc2cc(=O)n3c(c2N(C)C)SCC3C(=O)O)c2ccccc12 (racemic; form 1) [listing 2 of 2 here],1.5 µM

# Tested on: Listeria monocytogenes
# Test: Antivirulence activity against Listeria monocytogenes EGD-e infected in chicken embryo assessed as increase in embryo life span at 5 uM measured over 72 hrs
# Assay type: functional
# Details: not given
row,SMILES,ILS
1,Cc1ccc(Cc2cc(=O)n3c(c2N(C)C)SCC3C(=O)O)c2ccccc12 (racemic; form 1) [listing 2 of 2 here],6 h
2,Cc1ccc(Cc2cc(=O)n3c(c2N(C)C)SCC3C(=O)O)c2ccccc12.c1c[nH]cn1 (racemic; form 2),9 h

# Target: T1, Listeriolysin regulatory protein (Listeria monocytogenes serovar 1/2a (strain ATCC BAA-679 / EGD-e))
# Test: (§1) Binding affinity to GFP expressing Listeria monocytogenes EGD-e PrfA expressed in Escherichia coli assessed as inhibition of bacterial uptake in human Caco2 cells at 1 uM incubated for 4 hrs by flow cytometric method relative to control
# Details: not given
row,SMILES,inhibition
1,Cc1ccc(Cc2cc(=O)n3c(c2N(C)C)SCC3C(=O)O)c2ccccc12 (racemic; form 1) [listing 1 of 2 here],90%

# Target: T1, Listeriolysin regulatory protein (Listeria monocytogenes serovar 1/2a (strain ATCC BAA-679 / EGD-e))
# Test: as §1, with “20” for “1”, “(R)-8-cyclopropyl-7-(naphthalen-1-ylmethyl)-5-oxo-3,5-dihydro-2H-thiazolo[3,2-a]pyridine-3-carboxylic acid” for “control”
# Details: not given
row,SMILES,fold change (FC)
1,Cc1ccc(Cc2cc(=O)n3c(c2C2CC2)SC[C@H]3C(=O)O)c2ccccc12,0.5
2,O=C(O)[C@@H]1CSc2c(C3CC3)c(Cc3cnc4ccccc4c3)cc(=O)n21,13
3,CN(C)c1c(Cc2cccc3ccccc23)cc(=O)n2c1SCC2C(=O)O.Cl (racemic),0.7
4,COc1c(Cc2cccc3ccccc23)cc(=O)n2c1SCC2C(=O)O (racemic),7
5,Cc1cccc(Cc2cc(=O)n3c(c2N(C)C)SCC3C(=O)O)c1C (racemic),0.6
6,C=CCOc1c(Cc2cccc3ccccc23)cc(=O)n2c1SCC2C(=O)O (racemic),4
7,CC(=O)Nc1c(Cc2cccc3ccccc23)cc(=O)n2c1SCC2C(=O)O (racemic),5
8,CC(C)COc1c(Cc2cccc3ccccc23)cc(=O)n2c1SCC2C(=O)O (racemic),4
9,CC(C)Nc1c(Cc2cccc3ccccc23)cc(=O)n2c1SCC2C(=O)O (racemic),3
10,CCOc1c(Cc2cccc3ccccc23)cc(=O)n2c1SCC2C(=O)O (racemic),5
11,CCc1cc(=O)n2c(c1N(C)C)SCC2C(=O)O (racemic),10
12,COC(=O)Nc1c(Cc2cccc3ccccc23)cc(=O)n2c1SCC2C(=O)O (racemic),6
13,CS(=O)(=O)Nc1c(Cc2cccc3ccccc23)cc(=O)n2c1SCC2C(=O)O (racemic),5
14,CS(=O)(=O)c1c(Cc2cccc3ccccc23)cc(=O)n2c1SCC2C(=O)O (racemic),7
15,Nc1c(Cc2cccc3ccccc23)cc(=O)n2c1SCC2C(=O)O (racemic),3
16,O=C(O)C1CSc2c(O)c(Cc3cccc4ccccc34)cc(=O)n21 (racemic),5
17,Cc1ccc(Cc2cc(=O)n3c(c2N(C)C)SCC3C(=O)O)c2ccccc12 (racemic; form 1) [listing 1 of 2 here],0.7

# Tested on: Listeria monocytogenes
# Test: Effect on growth of Listeria monocytogenes EGD-e at 100 uM after 7 hrs
# Assay type: organism-based
# Details: in vivo
row,SMILES,Activity
1,CN(C)c1c(Cc2cccc3ccccc23)cc(=O)n2c1SCC2C(=O)O.Cl (racemic),Non-Toxic
2,Cc1cccc(Cc2cc(=O)n3c(c2N(C)C)SCC3C(=O)O)c1C (racemic),Non-Toxic
3,Cc1ccc(Cc2cc(=O)n3c(c2N(C)C)SCC3C(=O)O)c2ccccc12 (racemic; form 1) [listing 2 of 2 here],Non-Toxic

# — ChEMBL document CHEMBL4177765, “Structure-Based Design of Inhibitors Targeting PrfA, the Master Virulence Regulator of Listeria monocytogenes” (J Med Chem, 2018)
